The data set relates to GENE-TOX genotoxicity assays, various organisms and cells. Description: GENE-TOX mutagenicity studies. The settings on record: for call: Assay Type: In vivo carcinogenicity studies.
Where [1] appears, read: Species/Cell Type: Escherichia coli polA (W3119 vs P3478), Assay Type: Rec-assay, DNA effects (bacterial DNA repair), Assay Code: RE1T, Evaluation Type: Evaluation A (Pre-1980).
Where [2] appears, read: Species/Cell Type: Salmonella typhimurium (one or more of the five standard strains: TA98, TA100, TA1535, TA1537, and TA1538), Assay Type: Histidine reverse gene mutation, Ames assay, Assay Code: SALT, Evaluation Type: Evaluation A (Pre-1980).
The mark [3] stands for this setting: Species/Cell Type: Salmonella typhimurium (one or more of the five standard strains: TA98, TA100, TA1535, TA1537, and TA1538), Assay Type: Histidine reverse gene mutation, Ames assay, Assay Code: SAL+, Evaluation Type: Evaluation A (Pre-1980).
Setting [4] is: Species/Cell Type: Salmonella typhimurium (one or more of the five standard strains: TA98, TA100, TA1535, TA1537, and TA1538), Assay Type: Histidine reverse gene mutation, Ames assay, Assay Code: SAL-, Evaluation Type: Evaluation A (Pre-1980).
Setting [5] is: Species/Cell Type: Nonhuman, Assay Code: CCG+L, Evaluation Type: Evaluation A (Pre-1980).

The source made the active and inactive calls. The rule behind the calls is not given here.

As for `CN(Cc1cnc2nc(N)nc(N)c2n1)c1ccc(C(=O)N[C@@H](CCC(=O)O)C(=O)O)cc1`, the mutagenic call reads like this: (Species/Cell Type: Arabidopsis species, Assay Type: Gene mutation, Assay Code: ARM-, Evaluation Type: Evaluation A (Pre-1980)) “inactive; negative”; (Species/Cell Type: Escherichia coli WP2, Assay Type: Tryptophan reverse gene mutation, Assay Code: WP2+, Evaluation Type: Evaluation A (Pre-1980)) “active; positive”; under setting [1], “no conclusion”; (Species/Cell Type: Human diploid fibroblasts, Assay Type: Unscheduled DNA synthesis (UDS) in vitro, DNA effects, Assay Code: UDH-, Evaluation Type: Evaluation A (Pre-1980)) “inactive; negative”; (Species/Cell Type: Human lymphocytes, Assay Type: Sister-chromatid exchange (SCE) in vivo, Assay Code: SCY+, Evaluation Type: Evaluation B (Post-1980)) “active; positive”; (Species/Cell Type: Human, Sex: Male, Assay Type: Sperm morphology, Assay Code: SPH+, Evaluation Type: Evaluation A (Pre-1980)) “active; positive”. The mutagenic call runs as follows: (Species/Cell Type: Mammalian oocytes or early embryo, Assay Type: Chromosome aberrations in vivo, Assay Code: CYO+D, Dose Response: With dose response, Evaluation Type: Evaluation A (Pre-1980)) “active; positive”; (Species/Cell Type: Mammalian polychromatic erythrocytes, Assay Type: Micronucleus test, chromosome aberrations, Assay Code: MNT+, Evaluation Type: Evaluation A (Pre-1980)) “active; positive”; (Species/Cell Type: Mouse (C3H/10T1/2) cells, Assay Type: Cell transformation, Assay Code: CTH+D, Dose Response: With dose response, Evaluation Type: Evaluation A (Pre-1980)) “active; positive”; (Species/Cell Type: Mouse lymphoma (L5178Y) cells, Assay Type: Forward gene mutation at the thymidine kinase (TK) locus, chromosome aberrations, Assay Code: L51+, Evaluation Type: Evaluation A (Pre-1980)) “active; positive”; (Species/Cell Type: Neurospora crassa, Assay Type: Aneuploidy, chromosome aberrations, Assay Code: NEN+, Evaluation Type: Evaluation A (Pre-1980)) “active; positive”; (Species/Cell Type: Nonhuman, Assay Type: Chromosome aberrations in vitro, Assay Code: CY&+D, Dose Response: With dose response, Evaluation Type: Evaluation A (Pre-1980)) “active; positive”. Besides, the mutagenic call is “active; positive” (Species/Cell Type: Nonhuman, Assay Type: Sister-chromatid exchange (SCE) in vitro, Assay Code: SC2+, Evaluation Type: Evaluation A (Pre-1980)); “no conclusion” (Species/Cell Type: Rodents, Sex: Male, Assay Type: Dominant lethal test, Assay Code: DLTT, Evaluation Type: Evaluation A (Pre-1980)); “active; positive” (Species/Cell Type: Saccharomyces cerevisiae, Assay Type: Mitotic recombination or gene conversion, Assay Code: YEH+, Evaluation Type: Evaluation A (Pre-1980)); “no conclusion” under setting [2]; “active; positive” (Species/Cell Type: Serratia marcesens, Assay Type: Reverse gene mutation, host-mediated assay, Assay Code: HMC+, Evaluation Type: Evaluation A (Pre-1980)); “inactive; negative” (Species/Cell Type: Syrian hamster embryo (SHE) cells, Assay Type: Cell transformation, clonal assay, Assay Code: CTC-, Evaluation Type: Evaluation A (Pre-1980)). For the same compound, the call (Species/Cell Type: Nonhuman, Assay Code: CCG-L, Evaluation Type: Evaluation A (Pre-1980)) was “inactive; negative”.
In the case of `Cc1ccc2cccc([N+](=O)[O-])c2n1`, under setting [3], the mutagenic call was “active; positive”.
On to `C#CC(OC(=O)NC1CCCCC1)(c1ccccc1)c1ccc(C)c(C)c1` (configuration not stated), for which the mutagenic call (Species/Cell Type: Human diploid fibroblasts, Assay Type: Unscheduled DNA synthesis (UDS) in vitro, DNA effects, Assay Code: UDH+, Evaluation Type: Evaluation A (Pre-1980)) was “active; positive” and the mutagenic call under setting [3] was “active; positive”.
`NC(=O)N1C2=CC=CCC2=C(CO)c2ccccc21`: the mutagenic call reads like this: (Species/Cell Type: Human lymphocytes, Assay Type: Sister-chromatid exchange (SCE) in vitro, Assay Code: SCLT, Evaluation Type: Evaluation B (Post-1980)) “no conclusion”; (Species/Cell Type: Human, Assay Type: Sister-chromatid exchange (SCE) in vitro, Assay Code: SC1T, Evaluation Type: Evaluation B (Post-1980)) “no conclusion”.
Consider `CCOC(=O)N(OC(C)=O)C(C)=O`, for which the mutagenic call (Species/Cell Type: Drosophila melanogaster, Assay Type: Sex-linked recessive lethal gene mutation, Assay Code: SRL+, Evaluation Type: Evaluation A (Pre-1980)) was “active; positive” and the mutagenic call (Species/Cell Type: Drosophila melanogaster, Sex: Male, Assay Type: Heritable translocation test, chromosome aberrations, Assay Code: DHTT, Evaluation Type: Evaluation A (Pre-1980)) was “no conclusion”.
For `Oc1ccccc1O`, the mutagenic call runs as follows: (Species/Cell Type: Allium cepa, Assay Type: Chromosome aberrations, Assay Code: ALC+, Evaluation Type: Evaluation A (Pre-1980)) “active; positive”; (Species/Cell Type: Human lymphocytes, Assay Type: Sister-chromatid exchange (SCE) in vitro, Assay Code: SCL+D, Dose Response: With dose response, Evaluation Type: Evaluation B (Post-1980)) “active; positive”; (Species/Cell Type: Human, Assay Type: Sister-chromatid exchange (SCE) in vitro, Assay Code: SC1+D, Dose Response: With dose response, Evaluation Type: Evaluation B (Post-1980)) “active; positive”; (Species/Cell Type: Mammalian polychromatic erythrocytes, Assay Type: Micronucleus test, chromosome aberrations, Assay Code: MNTT, Evaluation Type: Evaluation B (Post-1980)) “no conclusion”.
On to `CC(C)(C)Cl`, for which the mutagenic call under setting [1] was “no conclusion”.
`CCCCCN(CCCC(=O)O)N=O`: under setting [2], the mutagenic call is listed as “no conclusion”.
Take `CCCOC(=O)c1ccc(O)cc1`: the mutagenic call under setting [4] was “inactive; negative”.
Turning to `ClC(Cl)=C(c1ccc(Cl)cc1)c1ccc(Cl)cc1`, the mutagenic call runs as follows: (Species/Cell Type: Chinese hamster lung (V79) cells, Assay Type: Forward gene mutation at the HPRT or ouabain locus, Assay Code: V79+, Evaluation Type: Evaluation A (Pre-1980)) “active; positive”; (Species/Cell Type: Drosophila melanogaster, Assay Type: Sex-linked recessive lethal gene mutation, Assay Code: SRLT, Evaluation Type: Evaluation A (Pre-1980)) “no conclusion”; under setting [1], “no conclusion”; (Species/Cell Type: Mouse lymphoma (L5178Y) cells, Assay Type: Forward gene mutation at the thymidine kinase (TK) locus, chromosome aberrations, Assay Code: L51+/-*, Activation: With metabolic activation, Evaluation Type: Evaluation A (Pre-1980)) “inactive; positive without activation, negative with activation”; (Species/Cell Type: Nonhuman, Assay Type: Chromosome aberrations in vitro, Assay Code: CY&+, Evaluation Type: Evaluation A (Pre-1980)) “active; positive”; (Species/Cell Type: Saccharomyces cerevisiae, Assay Type: Mitotic recombination or gene conversion, Assay Code: YEH-, Evaluation Type: Evaluation A (Pre-1980)) “inactive; negative”. The mutagenic call reads like this: under setting [4], “inactive; negative”; (Species/Cell Type: Salmonella typhimurium, Serratia marcesens, Assay Type: Forward and reverse gene mutation, host-mediated assay, Assay Code: HM2-, Evaluation Type: Evaluation A (Pre-1980)) “inactive; negative”. Further, the call under setting [5] was “active; positive”.
On to `[Cl][Tl]`, for which, where the note is “Species/Cell Type: Syrian hamster embryo (SA7/SHE) cells, Assay Type: Cell transformation, viral enhanced, Assay Code: CT7+, Evaluation Type: Evaluation A (Pre-1980)”, the mutagenic call is “active; positive”.
As to `O=[N+]([O-])c1ccc(Oc2ccc(Cl)cc2Cl)cc1`, under “Species/Cell Type: Mammalian polychromatic erythrocytes, Assay Type: Micronucleus test, chromosome aberrations, Assay Code: MNTT, Evaluation Type: Evaluation A (Pre-1980)”, the mutagenic call is given as “no conclusion”. For the same compound, the call (Species/Cell Type: Nonhuman, Assay Code: CCG+, Evaluation Type: Evaluation A (Pre-1980)) is “active; positive”.
For the compound `C1=Cc2cc3cccc4ccc5ccc1c2c5c43`, the call under setting [5] was “active; positive”. Further, the mutagenic call (Species/Cell Type: Salmonella typhimurium (one or more of the five standard strains: TA98, TA100, TA1535, TA1537, and TA1538), Assay Type: Histidine reverse gene mutation, Ames assay, Assay Code: SAL+*, Activation: With metabolic activation, Evaluation Type: Evaluation A (Pre-1980)) was “active; positive”.
As to `CCNc1nc(Cl)nc(NCC)n1` (tested in a mixture with another compound), the mutagenic call (Species/Cell Type: Saccharomyces cerevisiae, Assay Type: Mitotic recombination or gene conversion, Assay Code: YEC-, Evaluation Type: Evaluation A (Pre-1980)) was “inactive; negative”.
In the case of `Nc1ccc(-c2ccc(N)cc2Cl)c(Cl)c1`, the mutagenic call (Species/Cell Type: Human diploid fibroblasts, Assay Type: Unscheduled DNA synthesis (UDS) in vitro, DNA effects, Assay Code: UDH+*, Activation: With metabolic activation, Evaluation Type: Evaluation A (Pre-1980)) is “active; positive”.
For `O[C@@H]1c2ccccc2-c2cc3ccc4ccccc4c3cc2[C@@H]1O`, the mutagenic call is, setting by setting: (Species/Cell Type: Chinese hamster lung (V79) cells, Assay Type: Forward gene mutation at the HPRT or ouabain locus, Assay Code: V79-, Evaluation Type: Evaluation A (Pre-1980)) “inactive; negative”; (Species/Cell Type: Mouse prostate cells, Assay Type: Cell transformation, Assay Code: CTM-, Evaluation Type: Evaluation A (Pre-1980)) “inactive; negative”; (Species/Cell Type: Syrian hamster embryo (SHE) cells, Assay Type: Cell transformation, clonal assay, Assay Code: CTC+, Evaluation Type: Evaluation A (Pre-1980)) “active; positive”.
